Patent publication US20070154990A1, “Assays for identifying inhibitors of fatty acid amide hydrolase” (priority 2005, published 2007)
Where a chain is given by its changes, count along the chain named. Where two headings read alike, the source gives them in different places.

Legend:
[1] = biological target: T1, human FAAH (Homo sapiens, UniProt O00519); assay: [3H]-anandamide (AEA) hydrolysis by FAAH microsomes; type: biochemical
T1 construct: His6; made in house; host or cells: CHO cells, stably transfected; microsomal fraction used
T1 sequence (O00519 1-579): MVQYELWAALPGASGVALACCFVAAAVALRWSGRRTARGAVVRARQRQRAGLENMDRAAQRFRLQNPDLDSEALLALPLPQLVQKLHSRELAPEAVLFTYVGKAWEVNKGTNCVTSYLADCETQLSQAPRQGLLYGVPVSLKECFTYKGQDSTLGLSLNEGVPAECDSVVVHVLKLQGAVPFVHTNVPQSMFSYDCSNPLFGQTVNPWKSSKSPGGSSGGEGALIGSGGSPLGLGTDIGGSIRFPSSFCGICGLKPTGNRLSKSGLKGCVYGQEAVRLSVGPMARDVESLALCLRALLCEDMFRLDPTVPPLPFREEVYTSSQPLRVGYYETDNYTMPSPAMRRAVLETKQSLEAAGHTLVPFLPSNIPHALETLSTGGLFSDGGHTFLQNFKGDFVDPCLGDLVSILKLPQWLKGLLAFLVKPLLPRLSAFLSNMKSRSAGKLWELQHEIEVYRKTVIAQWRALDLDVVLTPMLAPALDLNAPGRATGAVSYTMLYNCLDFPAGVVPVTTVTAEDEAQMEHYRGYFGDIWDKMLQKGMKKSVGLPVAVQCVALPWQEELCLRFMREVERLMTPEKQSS
Method: 0.5 μg of human FAAH microsomes were incubated with 1 μM [^3H]-AEA substrate and indicated concentrations of MAEA in assay buffer at room temperature for 2 hours. Released [^3H]-ethanolamine was extracted by chloroform/methanol and counted.
Panel (B) Effect of MAEA on the kinetics of AEA hydrolysis by FAAH-containing microsomes. 0.5 μg of the microsomes comprising FAAH were incubated with the indicated [^3H]-AEA concentrations for 30 minutes with or without 10 μM of MAEA. Released [^3H]-ethanolamine was measured in a scintillation counter.
Microsomes (0.5 μg/assay) prepared from CHO cells expressing human FAAH, were incubated with the indicated concentrations of anandamide (ethanolamine 1-[^3H]) for 30 min at 25° C. in 50 mM HEPES, pH 7.4, 1 mM EDTA and 0.1% BSA. The reaction was terminated by the addition of 2 volumes of chloroform/methanol (1:1, v/v). The samples were vortexed and centrifuged at 1000 g for 3 minutes. The aqueous phase, containing [^3H]-ethanolamine, was collected and measured by liquid scintillation counting. Results are presented as the mean±S.E. of triplicate measurements from at least two independent experiments. The observed rate constants (apparent Km) were calculated using GraphPad Prism 3.02, based on a Michaelis-Menten (one site binding hyperbola) equation Y=BmaxX/[Km+X].
The AEA hydrolysis assays were performed according to the protocols described in Example 1. 0.5 μg of FAAH-containing microsomes per assay were incubated with 8 different concentrations (in a range from 1 μM to 10 μM) of compound in the presence of 1 μM […] in 50 mM HEPES, pH 7.5, 1 mM EDTA, 0.1% BSA at room temperature for 2 hours. ^3H-ethanolamine released from AEA hydrolysis was measured by liquid scintillation counting. Results were analyzed using a sigmoidal dose-response equation by GraphPad Prism 3.02. Numerical results are the mean of triplicate measurements from at least two independent experiments.

[2] = biological target: T1, human FAAH; assay: FAAH SPA binding assay (displacement of [3H]-MAEA from FAAH-containing microsomes); conditions: for IC50: 3 hours room temperature
Method: FIG. 3. One embodiment of a FAAH SPA assay. […] The radioactivity was counted on a TopCount™ for one minute per sample. Each point shown is the mean±SD of triplicates from at least two independent experiments.
FIG. 7. Inhibition of the binding of [^3H]-MAEA to FAAH-containing microsomes by FAAH inhibitors in SPA. The assay was carried out by incubating 5 μg of FAAH microsomes with 100 nM [^3H]-MAEA and 0.5 mg of WGA beads in 50 mM HEPES, 1 mM EDTA, pH 7.4, 0.1% BSA, with inhibitors in a 200 μL total reaction volume, at room temperature for 3 hours. The final concentration of DMSO in the assay was 0.5%. IC50 values were calculated by fitting the curve to a non-linear regression equation. Each point is the mean±SD of triplicate data from at least two independent experiments.
The SPA assay consisted of 100 nM [^3H]-MAEA (60 Ci/mmol), […] FAAH microsomes and 0.5 mg PVT-WGA beads in buffer (50 mM HEPES, pH 7.4, 1 mM EDTA and 0.1% BSA). The assays were performed in 96 well plates with a final volume of 200 μL. Components were added to the assay plates, which were agitated on a plate shaker for 3-4 hours at room temperature. The assays were then counted on a TopCount NXT (PerkinElmer, Boston, Mass.) for one minute per well. Results presented are the mean±S. E. of triplicate measurements from at least two independent experiments. The IC50 values were calculated using the GraphPad Prism 3.02 program, based on a sigmoidal dose-response equation. The screening window coefficient (Z′-factor) was calculated according to the following equation as previous described (See Zhang, J. H., T. D. Chung, and K. R. Oldenburg, A simple statistical parameter for use in evaluation and validation of high throughput screening assays, J Biomol Screen, 1999, 4: 67-73): Z=1−(3σc++3σc−)/|μc+−μc−| where, σc+ and σc− are standard deviations of positive and negative controls and μc+ and μc− are means of positive and negative controls respectively.
Assays were performed by incubating 0.5 mg of PVT-WGA beads, 100 nM [3H]-MAEA, and 5 μg of FAAH-containing microsomes. Assays were incubated in the wells of 96-well plates.

[3] = biological target: T2, FAAH microsomes (Homo sapiens, UniProt O00519); assay: Hydrolysis of [3H]-MAEA by FAAH microsomes; type: biochemical; conditions: 5 μg FAAH microsomes over 5 hours
T2 construct: His6; made in house; host or cells: CHO cells, stably transfected; microsomal fraction used
T2 sequence (O00519 1-579): T1 sequence (O00519 1-579)
From the text: R(+)-methanandamide (R-(+)-arachidonyl-1-′-hydroxy-2′-propylamide, MAEA) is an anandamide analog with a methyl group at the 1′-position of the ethanolamido head group. […] The effects of MAEA on FAAH-catalyzed anandamide hydrolysis was also examined using FAAH-containing microsomes.

[4] = biological target: T3, inactive FAAH-S241A (Homo sapiens, UniProt O00519, S241A); assay: SPA binding of [3H]-MAEA to microsomes with inactive FAAH-S241A mutant; conditions: 5 μg microsomes containing inactive FAAH-S241A
T3 construct: His6; made in house; host or cells: CHO cells, stably transfected; microsomal fraction used
T3 sequence (O00519 1-579 S241A): T1 sequence (O00519 1-579) with S241A
Method: (§1) FIG. 4. […] The relative activity of FAAH-containing microsomes or those prepared from cells expressing FAAH-S241A or vector control was measured by increasing the microsomal protein concentration ranging from 0-10 μg/assay. 100 nM of [^3H]-MAEA and 0.5 mg of WGA SPA beads were incubated with indicated concentrations of microsomes at 25° C. for 3 hours. Radioactivity was measured in a TopCount™. The SPA signal (CPM) was plotted against amount of microsomal protein in the assay. Each point is the mean±SD of triplicate data from at least two independent experiments.
(§2) Cells were collected by centrifugation at 2000 g for 10 minutes at 4° C. in a Sorvall high-speed centrifuge. The cell pellet was then washed 3 times with PBS and resuspended in buffer containing 50 mM HEPES, pH 7.4, 1 mM EDTA, 1 μM pepstatin, 100 μM leupeptin, 0.1 mg/mL aprotinin. The cells were sonicated 5 times for 10 seconds at 15-second intervals and the cell lysate was further centrifuged at 12000 g for 20 minutes at 4° C. The supernatant was centrifuged at 100,000 g for 30 minutes in a SW28 rotor in a Beckman Optima LE-80K centrifuge. The pellet obtained was the microsomal fraction, which was resuspended in ice-cold buffer. Protein concentration was measured by the BCA method (Pierce) and the microsomal suspension adjusted to 1 mg/mL and stored in aliquots at −80° C. until use. […]

[5] = SPA binding of [3H]-MAEA to microsomes from CHO cells containing only vector; design: species or system Chinese hamster; conditions: 5 μg microsomes from cells containing only vector
Method: as §1, §2

[6] = 5 μg FAAH microsomes, 100 nM [3H]-MAEA, 0.5 mg WGA beads
[7] = 0.5 μg FAAH-containing microsomes, 1 μM radiolabelled substrate, room temperature 2 hours, read-out: AEA hydrolysis (IC50)

CCCCC/C=C\C/C=C\C/C=C\C/C=C\CCCC(=O)NCCO [AEA, arachidonyl ethanolamide]
Km ([1]; FAAH-containing microsomes, without MAEA, read-out: apparent Km for AEA (no inhibitor)): 9.1 µM

CCCCCCCCCCCC(=O)c1nc2ncccc2o1 [CAY-10400]
IC50 [2, 6]: 3.1 nM | IC50 [1, 7]: 2.3 nM

CCCCC/C=C\C/C=C\C/C=C\C/C=C\CCCC(=O)N[C@H](C)CO [MAEA, R-(+)-arachidonyl-1-′-hydroxy-2′-propylamide]
Kd ([2]; 2 μg FAAH microsomes, 0.5 mg PVT-WGA beads, estimated, read-out: Kd of specific binding to FAAH microsomes): 25000 nM | specific binding of [3H]-MAEA to microsomes ([2]; 5 μg microsomes containing FAAH): 90% | total [3H]-MAEA bound to FAAH microsomes ([2]; 5 μg microsomes, 100 nM [3H]-MAEA, 0.5 mg WGA beads): ~92% | IC50 ([1]; 0.5 μg human FAAH microsomes, 1 μM [3H]-AEA, 2 hours, read-out: IC50 of inhibition of FAAH-catalyzed anandamide hydrolysis): 7400 nM | mode of inhibition (Lineweaver-Burk plot) ([1]; 10 μM MAEA): competitive FAAH inhibitor | Vmax of AEA hydrolysis in the presence of the compound ([1]; MAEA at 10 μM, 30 minutes): 25.82 nmol/min/mg protein | Km ([1]; MAEA at 10 μM, 30 minutes, read-out: apparent Km for AEA in the presence of the compound): 62.3 µM | [3H]-MAEA degraded [3]: less than 1.5% | specific binding of [3H]-MAEA to microsomes [4]: 6.5% | specific binding of [3H]-MAEA to microsomes [5]: 6.1%

NC(=O)c1cccc(-c2cccc(OC(=O)NC3CCCCC3)c2)c1 [URB-597]
SPA counts in the presence of inhibitor ([2]; URB-597 1 μM, 5 μg FAAH microsomes, 100 nM [3H]-MAEA, 160 cpm without inhibitor): 1932 cpm | effect on the interaction of [3H]-MAEA and the WGA beads ([2]; same concentration of URB-597 (1 μM), no microsomes): no effect

Arachidonoyl trifluoromethyl ketone [ATFK]
IC50 [2, 6]: 87 nM | IC50 [1, 7]: 10.1 nM
